Measured values as given in patent publication US20230123334A1, “AMINO LIPID COMPOUND, PREPARATION METHOD THEREFOR, AND APPLICATION THEREOF” (SHENZHEN SHENXIN BIOTECHNOLOGY CO., LTD., priority 2020, published 2023).

tested on: HEK293 cells; assay: Preliminary screening as DNA vectors, GFP transfection of HEK293 cells; type: cell-based; details: HEK293 cells; lipid/DOPE liposome with 75 ng plasmid DNA (psin-EGFP-IRES-Puro); number of cells expressing GFP divided by total number of nuclei (Hoechst)
Method in brief: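 First, amino lipid and DOPE were vortexed in sodium acetate buffer (pH 5.6) to form liposomes. Next, these were held with 75 ng EGFP plasmid at room temperature for 30 min. Finally, HEK293 cells were added, cultured at 37° C., Hoechst-stained, and GFP+/total nuclei scored by imaging.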

Compound	Absolute DNA transfection efficiency in HEK293 cells
CCCCCCCCCCCCCCCCCCNc1nc(NCCCCCCCCC)nc(NCCN(CC)CC)n1 [Compound N9N18D7]	3.0%
CCCCCCCCCCCCCCCCCCNc1nc(NCCCCCCCCC)nc(NCCCN2CCOCC2)n1 [Compound N9N18D8]	1.4%
CCCCCCCCCCCCCCCCCCNc1nc(NCCCCCCCCC)nc(NCCCN2CCN(C)CC2)n1 [Compound N9N18D9]	0.3%
CCCCCCCCCCCCCCCCCCNc1nc(NCCCCCCCCC)nc(NCC2CCN(C)CC2)n1 [Compound N9N18D10]	2.6%
CCCCCCCCCCCNc1nc(NCCCCCCCCCCC)nc(NCCN(C)C)n1 [Compound N11N11D1]	0.9%
CCCCCCCCCCCNc1nc(NCCCCCCCCCCC)nc(NCCN2CCOCC2)n1 [Compound N11N11D2]	0.0%
CCCCCCCCCCCNc1nc(NCCCCCCCCCCC)nc(NCCN2CCCC2)n1 [Compound N11N11D3]	1.8%
CCCCCCCCCCCNc1nc(NCCCCCCCCCCC)nc(NCCN2CCCCC2)n1 [Compound N11N11D4]	0.0%
CCCCCCCCCCCNc1nc(NCCCCCCCCCCC)nc(NCCN2CCN(C)CC2)n1 [Compound N11N11D5]	0.9%
CCCCCCCCCCCNc1nc(NCCCCCCCCCCC)nc(NCCCN(C)C)n1 [Compound N11N11D6]	0.7%
CCCCCCCCCCCNc1nc(NCCCCCCCCCCC)nc(NCCN(CC)CC)n1 [Compound N11N11D7]	0.6%
CCCCCCCCCCCNc1nc(NCCCCCCCCCCC)nc(NCCCN2CCOCC2)n1 [Compound N11N11D8]	0.0%
CCCCCCCCCCCNc1nc(NCCCCCCCCCCC)nc(NCCCN2CCN(C)CC2)n1 [Compound N11N11D9]	0.0%
CCCCCCCCCCCNc1nc(NCCCCCCCCCCC)nc(NCC2CCN(C)CC2)n1 [Compound N11N11D10]	0.5%
CCCCCCCCCCCCNc1nc(NCCCCCCCCCCC)nc(NCCN(C)C)n1 [Compound N11N12D1]	0.0%
CCCCCCCCCCCCNc1nc(NCCCCCCCCCCC)nc(NCCN2CCOCC2)n1 [Compound N11N12D2]	0.5%
CCCCCCCCCCCCNc1nc(NCCCCCCCCCCC)nc(NCCN2CCCC2)n1 [Compound N11N12D3]	1.9%
CCCCCCCCCCCCNc1nc(NCCCCCCCCCCC)nc(NCCN2CCCCC2)n1 [Compound N11N12D4]	0.0%
CCCCCCCCCCCCNc1nc(NCCCCCCCCCCC)nc(NCCN2CCN(C)CC2)n1 [Compound N11N12D5]	0.0%
CCCCCCCCCCCCNc1nc(NCCCCCCCCCCC)nc(NCCCN(C)C)n1 [Compound N11N12D6]	0.5%
CCCCCCCCCCCCNc1nc(NCCCCCCCCCCC)nc(NCCN(CC)CC)n1 [Compound N11N12D7]	0.0%

Compound	Absolute DNA transfection efficiency in HEK293 cells
CCCCCCCCCCCCNc1nc(NCCCCCCCCCCC)nc(NCCCN2CCOCC2)n1 [Compound N11N12D8]	0.0%
CCCCCCCCCCCCNc1nc(NCCCCCCCCCCC)nc(NCCCN2CCN(C)CC2)n1 [Compound N11N12D9]	0.0%
CCCCCCCCCCCCNc1nc(NCCCCCCCCCCC)nc(NCC2CCN(C)CC2)n1 [Compound N11N12D10]	1.8%
CCCCCCCCCCCCCNc1nc(NCCCCCCCCCCC)nc(NCCN(C)C)n1 [Compound N11N13D1]	1.4%
CCCCCCCCCCCCCNc1nc(NCCCCCCCCCCC)nc(NCCN2CCOCC2)n1 [Compound N11N13D2]	0.0%
CCCCCCCCCCCCCNc1nc(NCCCCCCCCCCC)nc(NCCN2CCCC2)n1 [Compound N11N13D3]	0.0%
CCCCCCCCCCCCCNc1nc(NCCCCCCCCCCC)nc(NCCN2CCCCC2)n1 [Compound N11N13D4]	0.0%
CCCCCCCCCCCCCNc1nc(NCCCCCCCCCCC)nc(NCCN2CCN(C)CC2)n1 [Compound N11N13D5]	0.1%
CCCCCCCCCCCCCNc1nc(NCCCCCCCCCCC)nc(NCCCN(C)C)n1 [Compound N11N13D6]	0.8%
CCCCCCCCCCCCCNc1nc(NCCCCCCCCCCC)nc(NCCN(CC)CC)n1 [Compound N11N13D7]	0.5%
CCCCCCCCCCCCCNc1nc(NCCCCCCCCCCC)nc(NCCCN2CCOCC2)n1 [Compound N11N13D8]	0.0%
CCCCCCCCCCCCCNc1nc(NCCCCCCCCCCC)nc(NCCCN2CCN(C)CC2)n1 [Compound N11N13D9]	0.0%
CCCCCCCCCCCCCNc1nc(NCCCCCCCCCCC)nc(NCC2CCN(C)CC2)n1 [Compound N11N13D10]	0.0%
CCCCCCCCCCCCCCCNc1nc(NCCCCCCCCCCC)nc(NCCN(C)C)n1 [Compound N11N15D1]	1.3%
CCCCCCCCCCCCCCCNc1nc(NCCCCCCCCCCC)nc(NCCN2CCOCC2)n1 [Compound N11N15D2]	0.3%
CCCCCCCCCCCCCCCNc1nc(NCCCCCCCCCCC)nc(NCCN2CCCC2)n1 [Compound N11N15D3]	0.3%
CCCCCCCCCCCCCCCNc1nc(NCCCCCCCCCCC)nc(NCCN2CCCCC2)n1 [Compound N11N15D4]	0.9%
CCCCCCCCCCCCCCCNc1nc(NCCCCCCCCCCC)nc(NCCN2CCN(C)CC2)n1 [Compound N11N15D5]	0.2%
CCCCCCCCCCCCCCCNc1nc(NCCCCCCCCCCC)nc(NCCCN(C)C)n1 [Compound N11N15D6]	1.6%
CCCCCCCCCCCCCCCNc1nc(NCCCCCCCCCCC)nc(NCCN(CC)CC)n1 [Compound N11N15D7]	0.2%
CCCCCCCCCCCCCCCNc1nc(NCCCCCCCCCCC)nc(NCCCN2CCOCC2)n1 [Compound N11N15D8]	1.1%

tested on: HEK293 cells; assay: Preliminary screening as mRNA vectors, EGFP mRNA transfection of HEK293 cells; type: cell-based; details: HEK293 cells, 96-well plates, EGFP mRNA 50 ng per well; percentage of GFP fluorescent cells relative to total number of cells (Hoechst)
Method in brief: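 Screening format: EGFP mRNA transfection (50 ng/well) into HEK293 in 10% FBS-supplemented DMEM. Percent green fluorescent cells, normalised to Hoechst nuclear count, gave the value; Lipofectamine2000 was the reference transfectant.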

Compound	Absolute mRNA transfection efficiency in HEK293 cells
CCCCCCCCCCCCCCCCCCNc1nc(NCCCCCCCCC)nc(NCCN(CC)CC)n1 [Compound N9N18D7]	0.6%
CCCCCCCCCCCCCCCCCCNc1nc(NCCCCCCCCC)nc(NCCCN2CCOCC2)n1 [Compound N9N18D8]	0.3%
CCCCCCCCCCCCCCCCCCNc1nc(NCCCCCCCCC)nc(NCCCN2CCN(C)CC2)n1 [Compound N9N18D9]	3.1%
CCCCCCCCCCCCCCCCCCNc1nc(NCCCCCCCCC)nc(NCC2CCN(C)CC2)n1 [Compound N9N18D10]	1.9%
CCCCCCCCCCCNc1nc(NCCCCCCCCCCC)nc(NCCN(C)C)n1 [Compound N11N11D1]	4.3%
CCCCCCCCCCCNc1nc(NCCCCCCCCCCC)nc(NCCN2CCOCC2)n1 [Compound N11N11D2]	1.4%
CCCCCCCCCCCNc1nc(NCCCCCCCCCCC)nc(NCCN2CCCC2)n1 [Compound N11N11D3]	1.4%
CCCCCCCCCCCNc1nc(NCCCCCCCCCCC)nc(NCCN2CCCCC2)n1 [Compound N11N11D4]	4.1%
CCCCCCCCCCCNc1nc(NCCCCCCCCCCC)nc(NCCN2CCN(C)CC2)n1 [Compound N11N11D5]	0.4%
CCCCCCCCCCCNc1nc(NCCCCCCCCCCC)nc(NCCCN(C)C)n1 [Compound N11N11D6]	1.1%
CCCCCCCCCCCNc1nc(NCCCCCCCCCCC)nc(NCCN(CC)CC)n1 [Compound N11N11D7]	5.5%
CCCCCCCCCCCNc1nc(NCCCCCCCCCCC)nc(NCCCN2CCOCC2)n1 [Compound N11N11D8]	1.5%
CCCCCCCCCCCNc1nc(NCCCCCCCCCCC)nc(NCCCN2CCN(C)CC2)n1 [Compound N11N11D9]	0.3%
CCCCCCCCCCCNc1nc(NCCCCCCCCCCC)nc(NCC2CCN(C)CC2)n1 [Compound N11N11D10]	1.2%
CCCCCCCCCCCCNc1nc(NCCCCCCCCCCC)nc(NCCN(C)C)n1 [Compound N11N12D1]	0.3%
CCCCCCCCCCCCNc1nc(NCCCCCCCCCCC)nc(NCCN2CCOCC2)n1 [Compound N11N12D2]	0.5%
CCCCCCCCCCCCNc1nc(NCCCCCCCCCCC)nc(NCCN2CCCC2)n1 [Compound N11N12D3]	2.7%
CCCCCCCCCCCCNc1nc(NCCCCCCCCCCC)nc(NCCN2CCCCC2)n1 [Compound N11N12D4]	1.2%
CCCCCCCCCCCCNc1nc(NCCCCCCCCCCC)nc(NCCN2CCN(C)CC2)n1 [Compound N11N12D5]	8.0%
CCCCCCCCCCCCNc1nc(NCCCCCCCCCCC)nc(NCCCN(C)C)n1 [Compound N11N12D6]	8.1%
CCCCCCCCCCCCNc1nc(NCCCCCCCCCCC)nc(NCCN(CC)CC)n1 [Compound N11N12D7]	2.4%

Compound	Absolute mRNA transfection efficiency in HEK293 cells
CCCCCCCCCCCCNc1nc(NCCCCCCCCCCC)nc(NCCCN2CCOCC2)n1 [Compound N11N12D8]	2.8%
CCCCCCCCCCCCNc1nc(NCCCCCCCCCCC)nc(NCCCN2CCN(C)CC2)n1 [Compound N11N12D9]	0.3%
CCCCCCCCCCCCNc1nc(NCCCCCCCCCCC)nc(NCC2CCN(C)CC2)n1 [Compound N11N12D10]	0.4%
CCCCCCCCCCCCCNc1nc(NCCCCCCCCCCC)nc(NCCN(C)C)n1 [Compound N11N13D1]	5.9%
CCCCCCCCCCCCCNc1nc(NCCCCCCCCCCC)nc(NCCN2CCOCC2)n1 [Compound N11N13D2]	0.1%
CCCCCCCCCCCCCNc1nc(NCCCCCCCCCCC)nc(NCCN2CCCC2)n1 [Compound N11N13D3]	3.6%
CCCCCCCCCCCCCNc1nc(NCCCCCCCCCCC)nc(NCCN2CCCCC2)n1 [Compound N11N13D4]	0.9%
CCCCCCCCCCCCCNc1nc(NCCCCCCCCCCC)nc(NCCN2CCN(C)CC2)n1 [Compound N11N13D5]	0.2%
CCCCCCCCCCCCCNc1nc(NCCCCCCCCCCC)nc(NCCCN(C)C)n1 [Compound N11N13D6]	0.2%
CCCCCCCCCCCCCNc1nc(NCCCCCCCCCCC)nc(NCCN(CC)CC)n1 [Compound N11N13D7]	0.9%
CCCCCCCCCCCCCNc1nc(NCCCCCCCCCCC)nc(NCCCN2CCOCC2)n1 [Compound N11N13D8]	0.6%
CCCCCCCCCCCCCNc1nc(NCCCCCCCCCCC)nc(NCCCN2CCN(C)CC2)n1 [Compound N11N13D9]	7.1%
CCCCCCCCCCCCCNc1nc(NCCCCCCCCCCC)nc(NCC2CCN(C)CC2)n1 [Compound N11N13D10]	0.0%
CCCCCCCCCCCCCCCNc1nc(NCCCCCCCCCCC)nc(NCCN(C)C)n1 [Compound N11N15D1]	0.6%
CCCCCCCCCCCCCCCNc1nc(NCCCCCCCCCCC)nc(NCCN2CCOCC2)n1 [Compound N11N15D2]	0.7%
CCCCCCCCCCCCCCCNc1nc(NCCCCCCCCCCC)nc(NCCN2CCCC2)n1 [Compound N11N15D3]	2.7%
CCCCCCCCCCCCCCCNc1nc(NCCCCCCCCCCC)nc(NCCN2CCCCC2)n1 [Compound N11N15D4]	2.8%
CCCCCCCCCCCCCCCNc1nc(NCCCCCCCCCCC)nc(NCCN2CCN(C)CC2)n1 [Compound N11N15D5]	0.8%
CCCCCCCCCCCCCCCNc1nc(NCCCCCCCCCCC)nc(NCCCN(C)C)n1 [Compound N11N15D6]	0.3%
CCCCCCCCCCCCCCCNc1nc(NCCCCCCCCCCC)nc(NCCN(CC)CC)n1 [Compound N11N15D7]	0.0%
CCCCCCCCCCCCCCCNc1nc(NCCCCCCCCCCC)nc(NCCCN2CCOCC2)n1 [Compound N11N15D8]	0.5%
